Test results: patent US6376230B1 (dated 2002)

melting point	Compound
138 to 144 °C (dec.)	CC1=C(O)CCOC1=O
98 to 99 °C (dec.)	CCCCCCC1=C(O)CCOC1=O
